These results are taken from patent US20250339443A1, “METHOD FOR TREATING OR PREVENTING CALCIUM RELEASE-ACTIVATED CALCIUM CHANNEL OR DISCOIDIN DOMAIN RECEPTOR 2 RELATED DISORDERS OR CONDITIONS” (LumiSTAR Biotechnology, Inc., priority 2023, published 2025).

The test system of one assay is CCL-226 cells. Kind of assay: TGF-β1-induced pericyte-to-myofibroblast activation (Western blot). It counts as cell-based, mouse. The following applies: CCL-226, 10 μM, 24 hours. The protocol:
FIG. 2A, FIG. 2B, FIG. 2C, FIG. 2D, FIG. 2E, FIG. 2F, FIG. 2G-1, and FIG. 2G-2 display how WRG-28 and Av suppress TGF-β1-induced fibroblasts activation and the differentiation of pericytes into myofibroblasts. […] Each bar represents the mean #SEM. […] The protein levels of collagen 1a1 and α-SMA were assessed using Western blot analysis under various conditions. […] Each bar represents mean±SEM. […] The images were acquired using a confocal microscope (Olympus, MPE). FIG. 2G-1 and FIG. 2G-2 display the measurement of angles between collagen fibers and the cell membrane, conducted using Image J. At least five different images from each condition were analyzed. Each bar represents mean±SEM. […]
Cell lysates were harvested in RIPA buffer (150 mM NaCl, 1 mM EGTA, 50 mM Tris pH 7.4, 10% glycerol, 1% Triton X-100, 1% sodium deoxycholate, 0.1% SDS, and protease inhibitor cocktail) and collected from culture dish with cell scrapers. […] The protein expression levels were assessed by specific primary antibodies, including antibodies against phosphotyrosine (clone 4G10; Millipore), DDR2 (R&D), α-SMA (Sigma), Collagen 1a1 (Boster), E-cadherin (BD Biosciences), SGLT2 (Proteintech), NHE1 (Novus) and β-actin (Clone C4, Millipore), followed by incubating with secondary antibodies conjugated with HRP and detected by ECL kit (Thermo Scientific). […]
For orientation: In western blotting, separated proteins are transferred to a membrane and probed.

A further assay deals with NRK49F cells. Kind of assay: Collagen gel contraction assay. Format: cell-based, rat. The following applies: NRK49F in collagen gel, 10 ng/ml TGF-β1, 10 μM, 3 days, 8 hours after release. The protocol:
FIG. 2A, FIG. 2B, FIG. 2C, FIG. 2D, FIG. 2E, FIG. 2F, FIG. 2G-1, and FIG. 2G-2 display how WRG-28 and Av suppress TGF-β1-induced fibroblasts activation and the differentiation of pericytes into myofibroblasts. […] Each bar represents the mean #SEM. […] The protein levels of collagen 1a1 and α-SMA were assessed using Western blot analysis under various conditions. […] Each bar represents mean±SEM. […] The images were acquired using a confocal microscope (Olympus, MPE). FIG. 2G-1 and FIG. 2G-2 display the measurement of angles between collagen fibers and the cell membrane, conducted using Image J. At least five different images from each condition were analyzed. Each bar represents mean±SEM. In all graphs, *, **, and *** represent p-value <0.05, 0.01, and 0.001, respectively. ‘ns’ denotes p-value >0.05, indicating no significant difference.
The collagen gel was made by mixing 3 ml rat tail collagen (Corning), 1 ml 5.7×DMEM, 500 μl 2.5% NaHCO3, 1 ml 0.1 M HEPES, 100 μl 0.17 M CaCl2, 100 μl 1 N NaOH, and 4.3 ml culture medium containing 2×10^6 NRK49F cells. 2 ml medium with or without 10 ng/ml TGF-β1 was applied onto gel in each well of 6 well-plate and cells were incubated for 3 days. After that gels were released from the culture plate and the gel area was quantified by Image J. […]

Another assay relates to Jurkat T cells. Kind of assay: Cytokine secretion in T cells (ELISA). The conditions noted are these: PHA/PMA induction, culture medium. It counts as cell-based, human.

Each structure is given as a SMILES string.

With `CCNS(=O)(=O)c1ccc(COc2ccc3nc4ccc(=O)cc-4oc3c2)cc1` [WRG-28], in the assay with CCL-226 cells, the “TGF-β1-induced upregulation of collagen 1a1 and α-SMA in pericyte” value is on record as “significantly suppressed”. Also, the “gel shrinkage (relative gel area) upon TGF-β1 stimulation” value in the assay with NRK49F cells was “markedly reduced”. In addition, the “secretion of IL-2 in T cells” value with Jurkat T cells is recorded as “significantly reduced”.

As to `Cc1nnsc1C(=O)Nc1ccc(-n2nc(C(F)(F)F)cc2C(F)(F)F)cc1` [BTP2], the “TGF-β1-induced upregulation of collagen 1a1 and α-SMA in pericyte” value with CCL-226 cells is “significantly suppressed”. Moreover, the “gel shrinkage (relative gel area) upon TGF-β1 stimulation” value with NRK49F cells is “markedly reduced”. For the same compound, in the assay on Jurkat T cells, the “secretion of IL-2 in T cells” value is given as “significantly reduced”.
